Assay results taken from US20180187263A1, “KITS FOR DIAGNOSTIC DETECTION AND PREVENTION OF FEEDLOT BOVINE RESPIRATORY DISEASE” (Iowa State University Research Foundation, Inc., priority 2017, published 2018).

Experiments:
PAFR [1] = experiment: weekly blood PAFR level by qRT-PCR (Example 14); type: in vivo, calves
Description: Blood was extracted from all 25 calves was extracted weekly and the level of PAFR was assayed using qRT-PCR and the theoretical copies of transcript/200 ng of total RNA. […] However, it dropped the most in the weekly depot injection calves during the last three weeks of observations.

PAFR [2] = molecular target: T1, PAFR (Bos taurus, UniProt Q9TTY5); experiment: stress hormone- and commensal oral bacteria-mediated second messenger accumulation in calf blood cells; type: cell-based, cattle; details: 500 nM inhibitor; cortisol 5 ng/mL, norepinephrine 100 pg/mL, 10^6 CFUs/mL commensal oral bacteria; six hours at 37° C.
T1 construct: second messenger accumulation in calf blood cells that have an increase in expression of PAFR; endogenous in cells; host or cells: bovine whole blood cells (ex vivo)
T1 sequence (Q9TTY5 whole entry): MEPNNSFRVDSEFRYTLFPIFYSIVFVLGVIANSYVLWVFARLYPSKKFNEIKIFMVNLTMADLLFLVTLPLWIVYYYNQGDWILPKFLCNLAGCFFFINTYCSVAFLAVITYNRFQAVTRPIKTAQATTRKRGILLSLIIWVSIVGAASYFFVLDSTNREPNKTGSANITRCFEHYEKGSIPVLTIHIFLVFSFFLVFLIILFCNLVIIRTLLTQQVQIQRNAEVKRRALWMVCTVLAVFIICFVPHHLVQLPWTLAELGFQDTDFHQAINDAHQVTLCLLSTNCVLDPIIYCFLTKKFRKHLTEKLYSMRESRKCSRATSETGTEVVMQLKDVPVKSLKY
Description: A PAFR inhibitor blocks the stress hormone- and commensal oral bacteria-mediated second messenger accumulation in calf blood cells that have an increase in expression of PAFR. Studies presented in Example 1 and FIG. 1 were repeated with the inclusion of the compositions comprising the anti-inflammatory drug rupatadine according to the invention. Blood was drawn from 10 animals that have an increase in PAFR expression (those in which an RT-PCR amplicon was visible after 10-15 cycles) and 10 animals with “normal” or no PAFR expression (those in which an RT-PCR amplicon was visible after 30-45 cycles).
Approximately 5 mL of whole blood was collected from the jugular or caudal vein of non-transported juvenile and adult cattle. Blood was placed in EDTA tubes, aliquoted, and cortisol (5 ng/mL) and norepinephrine (100 pg/mL) were added to some of the blood. The next day, blood samples were incubated with 0 or 10^6 CFUs/mL of commensal oral bacteria, 0 or 500 nM of the inhibitor, and a second messenger reagent for six hours at 37° C. with gentle rolling. After the six-hour incubation period, blood samples were analyzed for the production of second messengers. Data was standardized based on second messenger production in the presence of vehicle. […] Fifty ng of total RNA was then subjected to semi-quantitative RT-PCR to confirm the PAFR expression status of each animal.

[3] = molecular target: T2, Bovine H1 histamine receptor (Bos taurus, UniProt P30546); experiment: histamine-mediated intracellular calcium accumulation in BHK cells transiently expressing bovine H1 histamine receptor; type: cell-based; details: 10 nM histamine
T2 construct: expressed in transfected cells; host or cells: BHK cells, transient, lipofectamine, pcDNA3.3
T2 sequence (P30546 whole entry): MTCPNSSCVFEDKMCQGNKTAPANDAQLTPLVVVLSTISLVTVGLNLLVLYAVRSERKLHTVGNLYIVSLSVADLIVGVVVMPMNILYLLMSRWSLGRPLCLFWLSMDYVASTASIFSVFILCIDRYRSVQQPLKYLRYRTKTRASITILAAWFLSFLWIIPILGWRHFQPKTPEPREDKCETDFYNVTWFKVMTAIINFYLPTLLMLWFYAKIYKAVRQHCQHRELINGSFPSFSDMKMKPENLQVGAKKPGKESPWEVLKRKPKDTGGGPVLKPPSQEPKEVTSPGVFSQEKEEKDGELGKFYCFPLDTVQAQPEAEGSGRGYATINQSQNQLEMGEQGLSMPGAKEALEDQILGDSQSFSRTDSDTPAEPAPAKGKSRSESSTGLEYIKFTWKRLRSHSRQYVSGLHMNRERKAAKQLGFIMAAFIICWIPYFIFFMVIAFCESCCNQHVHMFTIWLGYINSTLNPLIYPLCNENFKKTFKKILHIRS
Description: Bovine H1 histamine receptor was cloned into pcDNA3.3 expression vector and transiently expressed in BHK tissue culture cells using lipofectamine as per Carlson et al. Ten nM histamine was then added to the cells in the presence of various concentrations of rupatadine, tripelennamine, lexipafant, or WEB2086. Intracellular calcium accumulation was monitored in the transfected cells using a commercially available kit (Abcam, Cambridge, Mass.). IC50 values were then determined by identifying the concentration of the antagonist that reduced the maximal PAF-mediated intracellular calcium accumulation by 50%. […] Therefore, as showing in Examples 11 and 12, rupatadine is the only antihistamine that can also block the function of PAFR.

BRD in high-risk calves [4] = experiment: BRD prevention in high-risk calves, weekly injections (Example 13); type: in vivo; details: weekly injections over five weeks; rupatadine 7 mg/kg subcutaneous, tripelennamine 1 mg/kg, WEB2086 10 mg/kg; five calves per group
Description: Twenty-five high-risk BRD calves were transported to a new barn and five each were assigned to different treatment groups: no treatment, weekly subcutaneous injections of 7 mg/kg of rupatadine, weekly injections of 1 mg/kg tripelennamine, weekly injections of 10 mg/kg WEB2086, and weekly injections of 1 mg/kg tripelennamine and 10 mg/kg WEB2086. The animals were observed over the next five weeks twice daily for BRD. Any animal who required antibiotics for treating the clinical signs of BRD was classified as having BRD. […] Four of the five (80%, n=4 of 5) animals receiving tripelennamine only developed BRD.

BRD in high-risk calves [5] = experiment: BRD prevention in high-risk calves, comparison of rupatadine treatment methods (Example 14); type: in vivo; details: for calves that developed BRD: five-week observation, n=6
Description: In order to test various treatment methods of rupatadine, 25 high-risk calves were transported to a new farm. Seven calves were used as controls, six were given rupatadine as a single oral dose of 1 mg/kg, six were given rupatadine as a single subcutaneous injection of 7 mg/kg, six calves were given weekly subcutaneous injections of 7 mg/kg rupatadine. The animals were observed over the next five weeks twice daily for BRD. Any animal who required antibiotics for treating the clinical signs of BRD was classified as having BRD.

[6] = pharmacotherapeutic study, blood levels after oral administration; type: in vivo; details: daily oral doses of 30 mg/animal for 5 days; six calves; FIG. 9
Description: A pharmacotherapeutic study was completed to confirm the PAFRi survives the rumen and reaches therapeutic blood and lung concentrations following oral administration to feedlot calves. Six calves were purchased and given daily oral doses of 30 mg/animal of the drug rupatadine for 5 days. Blood was drawn five times on day one and twice per day thereafter to measure the blood levels of rupatadine.
In addition to the blood levels of the drug, the amount of the drug in the muscle tissue is also analyzed. Six recently weaned feedlot calves were orally dosed with […] of rupatadine once a day for five days, a dose that was determined based on allometric scaling from human data. Blood samples were taken at 0, 2, 4, 8, 12, 24, 48, 72, 96, and 120 hours after the first dose. Calves were euthanized at the 120-hour time point at which lungs samples were removed. Samples were submitted to the PhAST laboratory at Iowa State University, for LCMS-based quantitation of the drug and its primary metabolite that is pharmacologically active.

Bovine PAFR = molecular target: T3, Bovine PAFR (Bos taurus, UniProt Q9TTY5); experiment: PAF-mediated intracellular calcium accumulation in BHK cells transiently expressing bovine PAFR; type: cell-based; details: 10 nM PAF; for block of bovine PAFR (PAF-mediated intracellular calcium accumulation), FIG. 11: antagonist 1-100 nM, PAFR antagonists panel; for block of bovine PAFR (PAF-mediated intracellular calcium accumulation), FIG. 12: antihistamines 1-100 nM
T3 construct: expressed in transfected cells; host or cells: BHK cells, transient, lipofectamine, pcDNA3.3
T3 sequence (Q9TTY5 whole entry): as the sequence (Q9TTY5 whole entry) above
Description: Bovine PAFR was cloned into pcDNA3.3 expression vector and transiently expressed in BHK tissue culture cells using lipofectamine as per Carlson et al., J Biol Chem, 271:23146053 (1996), herein incorporated by reference in its entirety. Ten nM PAF was then added to the cells in the presence of various concentrations of various antagonists: rupatadine, lexipafant (as in Kingsnorth, et al., BJS, 82:1414-20 (1995), herein incorporated in its entirety), and WEB2086 a PAF antagonist which has not been commercialized and/or used in humans to date (as in Casals-Stenzel et al., J of Pharmacolo Experimental Therapeutics, 241:974-81 (1987), herein incorporated in its entirety), as well as tripelennamine, a bovine-approved antihistamine at concentrations ranging between 1-100 nM. Intracellular calcium accumulation was monitored in the transfected cells using a commercially available kit (Abcam, Cambridge). IC50 values were then determined by identifying the concentration of the antagonist that reduced the maximal PAF-mediated intracellular calcium accumulation by 50%.
Various antihistamines were also tested. […] Intracellular calcium accumulation was monitored in the transfected cells using a commercially available kit (Abcam, Cambridge). IC50 values were then determined by identifying the concentration of the antagonist that reduced the maximal PAF-mediated intracellular calcium accumulation by 50%.

lung pathology = experiment: lung necropsy after five weeks of treatment (Example 13); type: in vivo; details: after five weeks of weekly 7 mg/kg subcutaneous injections; BRD(+) calves usually >25%
Description: After the five weeks, the rupatadine treated animals were euthanized and the lungs removed and necropsied. Three veterinarians then assessed the lungs for signs of disease, such as abscessation or consolidation. […] Lung pathology in BRD(+) calves is usually >25%, and of the rupatadine treated animals, there was only about 5-10% disease identified by the veterinarians.

BRD in feedlot calves = experiment: BRD prevention at the feedlot, drug in the feed (Examples 5-7); type: in vivo
Description: An initial study was performed to confirm BRD prevention at the feedlot using an anti-inflammatory composition comprising rupatadine, the oral inhibitor of PAFR. A total of 18 calves were evaluated with the treatment arm receiving a dosage rate of 0.3 mg/kg. Calves were provided the drug in the feed during the first three weeks after entering the feedlot which is within the high risk 6-week period following transfer of the animal. Calves were purchased from a location in Joplin, Mo. having an overall incidence of BRD at >40% which is higher than the standard incidence of about 10% in cattle.
A further study was performed to confirm BRD prevention at the feedlot using the anti-inflammatory composition comprising rupatadine. The same methodology of Example 5 was employed with the modification of the number of calves and the dosage rate. The dosage rate was increased to 0.6 mg/kg. The number of calves were increased to 24 in total. The results are consistent to the first trial, including: 41.7% of treated calves (n=5 of 12) developed BRD whereas 100% of untreated calves (n=12 of 12) developed BRD.
A further study was performed to confirm BRD prevention at the feedlot using the anti-inflammatory composition comprising rupatadine as outlined in Example 5 with the modification of the number of calves (20 total) and the dosage rate. The dosage rate increased to 1.2 mg/kg.

SMILES	block of H1 histamine receptor function, FIG. 13 [3]	animals that developed BRD (BRD in high-risk calves [4])	block of bovine PAFR (PAF-mediated intracellular calcium accumulation), FIG. 11 (Bovine PAFR)	block of bovine PAFR (PAF-mediated intracellular calcium accumulation), FIG. 12 (Bovine PAFR)	other results
Cc1cncc(CN2CCC(=C3c4ccc(Cl)cc4CCc4cccnc43)CC2)c1 [rupatadine, 8-chloro-11-[1-[(5-methyl-3-pyridyl)methyl]-4-piperidyliden]-6,11-dihydro-5H-benzo[5,6]cyclohepta[1,2-b]pyridine]	block	0%	blocked	blocks	decrease in PAFR expression over five weeks (PAFR [1]; weekly depot injection 7 mg/kg versus control and other rupatadine treatments, FIG. 21): greatest decrease; PAFR expression at 35 days (PAFR [1]; weekly injections 7 mg/kg, 35 days): below ‘normal’ expression; second messenger accumulation in samples with increased PAFR expression (PAFR [2]): indistinct from normal or non-expressing samples; calves that developed BRD (BRD in high-risk calves [5]; single oral dose of 1 mg/kg): 100%; calves that developed BRD (BRD in high-risk calves [5]; single subcutaneous long-acting injection of 7 mg/kg): 83.3%; calves that developed BRD (BRD in high-risk calves [5]; weekly subcutaneous injections of 7 mg/kg): 16.7%; day on which BRD developed (BRD in high-risk calves [5]; weekly subcutaneous injections of 7 mg/kg, the one calf that developed BRD): 31 days; blood levels: time to reach therapeutic concentrations [6]: reaches therapeutic concentrations more rapidly than in humans; lung disease identified by the veterinarians (lung pathology): 5-10%; treated calves that developed BRD (BRD in feedlot calves; 0.3 mg/kg in the feed during first three weeks after entering feedlot, 8 treated calves, within 5 weeks): 50%; reduction in BRD (BRD in feedlot calves; 0.3 mg/kg in the feed, versus calves that received no drug): 50%
COc1ccc(CN(CCN(C)C)c2ccccn2)cc1 [pyrilamine]				do not block	
CCOC(=O)[C@H](CC(C)C)N(C)S(=O)(=O)c1ccc(Cn2c(C)nc3cnccc32)cc1 [lexipafant]	fail to black		blocked		
CN(C)CCN(Cc1ccccc1)c1ccccn1 [tripelennamine]	block	80%	not blocked	do not block	
CN(C)CCOC(c1ccccc1)c1ccccc1 [diphenhydramine]				do not block	
Cc1nnc2n1-c1sc(CCC(=O)N3CCOCC3)cc1C(c1ccccc1Cl)=NC2 [WEB2086]	fail to black	100%	blocked		
OCCOCCN1CCN(C(c2ccccc2)c2ccc(Cl)cc2)CC1 (stereo not shown) [hydroxyazine, hydroxyzine]				do not block	
CC(CN1c2ccccc2Sc2ccccc21)N(C)C (stereo not shown) [promethazine]				do not block	
